According to US20240263068A1, “AIE Fluorescent Probe Composition, Method and Device for Measuring CMC of Surfactant Solution, and Method and Device for CMC Determination” (Moon House (China) Co., Ltd., priority 2022, published 2024):
Where two headings read alike, the source gives them in different places.

Legend:
[1] = Fluorescence emission peaks excited by 365 nm ultraviolet light; format: physicochemical
Excerpt: That is, the wavelength range of 400-550 nm within which the emission peaks of the fluorescent whitening agent CBS occur is avoided. In this way, the interference of the fluorescent whitening agent with the CMC determination result may be avoided.

[2] = Excerpt: It is generally believed that the type or polarity of a solvent almost has no influence on the fluorescence absorption or emission spectrum of the HPS.
[3] = cited from earlier work

For `O=S(=O)([O-])c1ccccc1C=Cc1ccc(-c2ccc(C=Cc3ccccc3S(=O)(=O)[O-])cc2)cc1.[Na+].[Na+]` [CBS], the “Wavelength range of emission peaks” value ([1]; fluorescent whitening agent in detergent) was 400-550 nm.
With `C[S+](C)[O-]` [DMSO] the “Solubility of HPS to Solvent” value [2] was “soluble”.
For `c1ccc(C2=C(c3ccccc3)[Si](c3ccccc3)(c3ccccc3)C(c3ccccc3)=C2c2ccccc2)cc1` [HPS, 1,1,2,3,4,5-hexaphenylsilole], the “Solubility of HPS powder in water” value [2] was “insoluble in water”, the “Fluorescence emission peak, sharp with high intensity” value ([1]; excited by 365 nm) was 350-370 nm and the “Fluorescence emission peak, wide and short with relatively low intensity” value ([1]; excited by 365 nm) was 720-740 nm. The “Solubility of HPS” value ([3]; alcohols such as methanol) was “slightly soluble”, the “Solubility of HPS” value ([3]; good solvents such as acetonitrile, tetrahydrofuran and chloroform) was “highly soluble” and the “Solubility of HPS” value ([3]; water) was “completely insoluble”.
With `CN1CCCC1=O` [NMP] the “Solubility of HPS to Solvent” value [2] was “soluble”.
For `c1ccc2ncccc2c1` [Quinoline], the “Solubility of HPS to Solvent” value [2] was “soluble”.
For `CCCCCO` [n-pentanol], the “Solubility of HPS to Solvent” value [2] was “slightly soluble”.
